Data: ChEMBL document CHEMBL3120052, “HCV polymerase inhibitors” (ACS Med Chem Lett, 2014)
pEC50: −log10 of the molar value.

Tested on: Hepatitis C virus
Assay: Antiviral activity against HCV genotype 1b expressing wild type NS3-NS5B infected in HuH7 luc/neo cells assessed as inhibition of RNA replication after 3 days by luciferase reporter gene assay
Format: functional, organism-based, Hepacivirus hominis
Settings: Huh-7, 72 h

| Structure (SMILES) | pEC50 |
| --- | --- |
| C[C@H](NP(=O)(OC[C@H]1O[C@@H](n2ccc(=O)[nH]c2=O)[C@](C)(N)[C@@H]1O)Oc1ccccc1)C(=O)OC1CCCCCCC1 (stereo partly drawn) | 6.54 |
| C[C@H](NP(=O)(OC[C@H]1O[C@@H](n2ccc(=O)[nH]c2=O)[C@](C)(NC(=O)OC(C)(C)C)[C@@H]1O)Oc1ccccc1)C(=O)OC1CCCCCCC1 (stereo partly drawn) | 4.82 |
| C[C@H](NP(=O)(OC[C@H]1O[C@@H](n2ccc(=O)[nH]c2=O)[C@](C)(NC(=O)OC(C)(C)C)[C@@H]1O)Oc1ccccc1)C(=O)OC1CCCC1 (stereo partly drawn) | 5.33 |
| C[C@H](NP(=O)(OC[C@H]1O[C@@H](n2ccc(=O)[nH]c2=O)[C@](C)(N)[C@@H]1O)Oc1ccccc1)C(=O)OC1CCCC1 (stereo partly drawn) | 6.33 |
| C[C@H](NP(=O)(OC[C@H]1O[C@@H](n2ccc(=O)[nH]c2=O)[C@](C)(NC(=O)OC(C)(C)C)[C@@H]1O)Oc1ccccc1)C(=O)OCCC(C)(C)C (stereo partly drawn) | 5.64 |
| C[C@H](NP(=O)(OC[C@H]1O[C@@H](n2ccc(=O)[nH]c2=O)[C@](C)(N)[C@@H]1O)Oc1ccccc1)C(=O)OCCC(C)(C)C (stereo partly drawn) | 6.31 |
| C[C@H](NP(=O)(OC[C@H]1O[C@@H](n2ccc(=O)[nH]c2=O)[C@](C)(NC(=O)OC(C)(C)C)[C@@H]1O)Oc1ccccc1)C(=O)OC1CCCCCC1 (stereo partly drawn) | 5.52 |
| C[C@H](NP(=O)(OC[C@H]1O[C@@H](n2ccc(=O)[nH]c2=O)[C@](C)(N)[C@@H]1O)Oc1ccccc1)C(=O)OC1CCCCCC1 (stereo partly drawn) | 6.72 |
